Consider nine compounds from patent publication US20050238732A1, “Carbonated germicide with pressure control” (priority 2003, published 2005).

Structures are written as SMILES. Where two headings read alike, the source gives them in different places. A value given as a limit tells only on which side of the number the result lay.

Series [1] deals with Bacillus subtilis spores. The series is described as follows: Spore suspension test, killing of Bacillus subtilis spores. Type of series: cell-based. The note with it: for Log Reduction/mL (20° C., 4 hrs): [NaHCO3], 0 mM; for Log Reduction/mL (3 hr, 20° C., pH = 8): Table 4B.
Series [2] can be described thus: Storage stability of phthalaldehyde solution (loss by Cannizzaro reaction). The note with it: stored about 11 weeks. In kind it is physicochemical. The text has this: Overall, the Cannizzaro reaction generally leads to loss of phthalaldehyde and a decrease in the germicidal efficacy of the solution. While a pH of from 6 to 10, or 7.5 to 9 generally enhances the efficacy of the phthalaldehyde-carbonate solution, the higher or alkaline pH also generally promotes the Cannizzaro reaction. […] However, about 14% of the phthalaldehyde may be lost if the same solution is stored for about 11 weeks at a pH of 9, at room temperature. Even more of the phthalaldehyde may be converted if the storage period is longer, if the temperature is higher, or if the pH is higher than 9.

The conditions of series [3]: pH range of 3 to 9, single component, per the '999 patent; cited from earlier work.
For series [4] the following is noted: cited from earlier work.
The subject of series [5] is Bacillus subtilis spores. The note with it: cited from earlier work.
In series [6] the test system is Clostridium sporogenes spores. The note with it: cited from earlier work.
Another series has as its system Mycobacterium bovis BCG. The note with it: at least 0.25% by weight phthalaldehyde as the sole active ingredient, 20° C.; cited from earlier work.
The conditions of series [7]: Air in headspace. As for the experimental part: (§1) Experiments were conducted to determine the pressures of several bicarbonate solutions with different bicarbonate concentration, starting pH, and at different temperatures, with air initially in the headspace of the container. Several bicarbonate solutions of different concentration were prepared. The pH of the solutions were adjusted by sparging the solutions with carbon dioxide to achieve a starting pH. About 1030 mL of each solution was introduced into a different 1145 mL glass bottle that was equipped with a thermometer and a pressure sensor. The headspace of each bottle was flushed with air for about one minute and then the bottle was sealed with a stopper. […] The solutions were stirred at about 20° C. until all pressures stabilized. The pressures were recorded. The solutions were then heated in a water bath to 40° C., and then to 55° C., and the pressures were recorded at each of these temperatures. The experiments were conducted at sea level.

For series [8] the following is noted: CO2 in headspace. As for the experimental part: as §1
Experiments were conducted to determine the pressures of sealed containers including bicarbonate solutions when the air initially present in the headspace of the containers was replaced with carbon dioxide. […] The experiments were conducted at sea level.

The procedure of series [9]: A 100 mL round-bottom flask having a capacity of about 135 mL was equipped with a septum, a stirrer bar, and a pressure sensor. […] About 65 mL of a bicarbonate solution having a particular concentration and pH was injected into the flask. Excess pressure was released through a needle on the septum. Carbon dioxide was sparged through the solution to obtain the listed pH and then the solution was sealed in the container with a stopper. The solution was stirred at a temperature of about 20° C. until a stable pressure was achieved. The procedure was repeated for other air partial pressures and bicarbonate solutions. The experiments were conducted at sea level.

Where [10] appears, read: Table 1, 20° C., 8 hr exposure, no pH control.
Where [11] appears, read: Table 2, 20° C., 8 hr exposure, no pH control.
The mark [12] stands for this setting: Table 3, 20° C., 8 hr exposure, no pH control.
Setting [13] is: Table 3, 20° C., 24 hr exposure, no pH control.
The mark [14] stands for this setting: 0.25% phthalaldehyde as the sole active ingredient, 20° C.
Setting [15] is: Table 2, 20° C., 4 hr exposure, no pH control.
[16] abbreviates: Table 2, 20° C., 24 hr exposure, no pH control.

With `O=Cc1ccccc1C=O` [0.3% OPA, 1,2-benzenedicarboxaldehyde], the “Log Reduction/mL (20° C.) 4 hr” value was determined as 0.5 in the series with Bacillus subtilis spores [1] (Table 1, 20° C., 4 hr exposure, no pH control) and 0.5 with Bacillus subtilis spores [1] (Table 4A, pH 7.0, 20° C., 4 hr). Besides, the “Log Reduction/mL (20° C.) 8 hr” value with Bacillus subtilis spores [1] (setting [10]) is given as 0.6; in the series on Bacillus subtilis spores [1] (setting [11]), roughly 0.6; in the series with Bacillus subtilis spores [1] (setting [12]) it was roughly 0.6; with Bacillus subtilis spores [1] (Table 4A, pH 7.0, 20° C., 8 hr) it was 0.6. Also, the “Log Reduction/mL (20° C.) 24 hr” value in the series on Bacillus subtilis spores [1] (Table 1, 20° C., 24 hr exposure, no pH control) is listed as 2.9; with Bacillus subtilis spores [1] (setting [13]) it was roughly 2.9; in the series on Bacillus subtilis spores [1] (Table 4A, pH 7.0, 20° C., 24 hr), 2.9. In addition, the “Log Reductions/mL (20° C.) 2 hr” value in the series on Bacillus subtilis spores [1] (Table 7, 20° C., 2 hr) was determined as 0.4. For the same compound, the “Log Reductions/mL (20° C.) 4 hr” value in the series with Bacillus subtilis spores [1] (Table 7, 20° C., 4 hr) came to 0.5; in the series with Bacillus subtilis spores [1] (Table 10, 20° C., 4 hr), 1.5. The “Log Reductions/mL (20° C.) 6 hr” value in the series on Bacillus subtilis spores [1] (Table 7, 20° C., 6 hr) stood at 0.7. Moreover, the “Log Reductions/mL (20° C.) 8 hr” value with Bacillus subtilis spores [1] (Table 7, 20° C., 8 hr) is 0.6. Also, the “Log Reductions/mL (20° C.) 24 hr” value in the series on Bacillus subtilis spores [1] (Table 7, 20° C., 24 hr) amounted to 2.9; in the series with Bacillus subtilis spores [1] (Table 10, 20° C., 24 hr), 2.9. The “Log Reduction/mL (20° C., 4 hrs)” value amounted to 0.5 in the series on Bacillus subtilis spores [1] (Table 13, 20° C.); 0.5 in the series on Bacillus subtilis spores [1] (Table 14, 20° C.); 0.5 in the series with Bacillus subtilis spores [1] (Table 15, 20° C.). Further, the “loss of phthalaldehyde on storage” value in series [2] (pH of 7 or lower, room temperature to about 40° C.) was “without a noticeable loss”. Further, in series [2] (pH of 9, room temperature), the “phthalaldehyde lost on storage” value was “about 14%”. In addition, the “stability of compositions containing phthalaldehyde” value in series [3] is “excellent stability”. Besides, the solubility in water result in series [4] was “about 5 % by weight”. Further, the “time for sporicidal activity” value (in the series with Bacillus subtilis spores [5] (setting [14]); in [6] (setting [14])) was 24 h each time. Further, the “time in which sterilization is achieved” value (with Bacillus subtilis spores [5] (1.0% phthalaldehyde); in series [6] (1.0% phthalaldehyde)) was 10 h throughout. Further, the “time to kill all Mycobacterium bovis BCG in contact with the composition” value with Mycobacterium bovis BCG was no more than 10 min.
As for `[F-].[Li+]` [100 mM LiF, lithium fluoride], the “Log Reduction/mL (20° C.) 24 hr” value in the series with Bacillus subtilis spores [1] (setting [13]) is 0.0.
Regarding `[F-].[K+]` [1000 mM KF, potassium fluoride], in the series on Bacillus subtilis spores [1] (setting [12]), the “Log Reduction/mL (20° C.) 8 hr” value was 0.0. Moreover, in the series with Bacillus subtilis spores [1] (setting [13]), the “Log Reduction/mL (20° C.) 24 hr” value stood at 0.1. In addition, the “Log Reduction/mL (3 hr, 20° C., pH = 8)” value with Bacillus subtilis spores [1] (20° C.) is given as 0.
As to `[I-].[K+]` [1000 mM KI, potassium iodide], the “Log Reduction/mL (3 hr, 20° C., pH = 8)” value in the series on Bacillus subtilis spores [1] (20° C.) is listed as 0.
With `[Br-].[Na+]` [1000 mM NaBr, sodium bromide], the “Log Reduction/mL (20° C.) 4 hr” value with Bacillus subtilis spores [1] (setting [15]) turned out to be 0.0. Moreover, the “Log Reduction/mL (20° C.) 24 hr” value in the series with Bacillus subtilis spores [1] (setting [16]) is 0.1.
For the compound `[Cl-].[Na+]` [1000 mM NaCl, sodium chloride], the “Log Reduction/mL (20° C.) 24 hr” value in the series on Bacillus subtilis spores [1] (setting [16]) was determined as 0.2.
As for `[F-].[Na+]` [1000 mM NaF, sodium fluoride], the “Log Reduction/mL (20° C.) 8 hr” value in the series on Bacillus subtilis spores [1] (setting [10]) and in the series on Bacillus subtilis spores [1] (setting [11]) was 0.0 each time. Besides, the “Log Reduction/mL (20° C.) 24 hr” value with Bacillus subtilis spores [1] (setting [16]) came to 0.0.
In the case of `[I-].[Na+]` [1000 mM Nal, sodium iodide], in the series with Bacillus subtilis spores [1] (setting [15]), the “Log Reduction/mL (20° C.) 4 hr” value is given as 0.0. Further, the “Log Reduction/mL (20° C.) 8 hr” value in the series on Bacillus subtilis spores [1] (setting [11]) amounted to 0.0. In addition, the “Log Reduction/mL (20° C.) 24 hr” value in the series with Bacillus subtilis spores [1] (setting [16]) worked out at 0.1.
On to `O=C([O-])O.[Na+]` [NaHCO3, sodium bicarbonate], for which the “Pressure Above Atmospheric Pressure (mmHg) 20° C.” value was found to be 72 mmHg in series [7] (pH 7.3, [NaHCO3] 0.02M); 250 mmHg in series [7] (pH 7.4, [NaHCO3] 0.3M); 134 mmHg in [7] (pH 7.8, [NaHCO3] 0.3M). Also, the “Pressure Above Atmospheric Pressure (mmHg) 40° C.” value is recorded as 208 mmHg in [7] (pH 7.3, [NaHCO3] 0.02M); 570 mmHg in series [7] (pH 7.4, [NaHCO3] 0.3M); 322 mmHg in [7] (pH 7.8, [NaHCO3] 0.3M). For the same compound, the “Pressure Above Atmospheric Pressure (mmHg) 55° C.” value is 378 mmHg in series [7] (pH 7.3, [NaHCO3] 0.02M); 862 mmHg in [7] (pH 7.4, [NaHCO3] 0.3M); 542 mmHg in series [7] (pH 7.8, [NaHCO3] 0.3M). In addition, the “Pressure Below (−) or Above (+) Atmospheric Pressure (mmHg) 20° C.” value in series [8] (pH 7.2, [NaHCO3] 0.3M) is on record as −158 mmHg; in series [8] (pH 7.3, [NaHCO3] 0.02M), −508 mmHg; in [8] (pH 7.4, [NaHCO3] 0.3M) it was −290 mmHg; in series [8] (pH 7.8, [NaHCO3] 0.3M) it was −440 mmHg. Also, the “Pressure Below (−) or Above (+) Atmospheric Pressure (mmHg) 40° C.” value in [8] (pH 7.2, [NaHCO3] 0.3M) is listed as 202 mmHg; in series [8] (pH 7.3, [NaHCO3] 0.02M), −348 mmHg; in series [8] (pH 7.4, [NaHCO3] 0.3M) it was 0 mmHg; in series [8] (pH 7.8, [NaHCO3] 0.3M), −246 mmHg. Besides, the “Pressure Below (−) or Above (+) Atmospheric Pressure (mmHg) 55° C.” value is reported as 532 mmHg in series [8] (pH 7.2, [NaHCO3] 0.3M); −202 mmHg in series [8] (pH 7.3, [NaHCO3] 0.02M); 274 mmHg in [8] (pH 7.4, [NaHCO3] 0.3M); −50 mmHg in series [8] (pH 7.8, [NaHCO3] 0.3M). Also, the “Final Pressure at Equilibrium (mmHg)” value turned out to be 758 mmHg in [9] (initial air 440 / CO2 320 mmHg, NaHCO3 0.3 mole/L, pH 7.4, about 20° C.); 760 mmHg in [9] (initial air 674 / CO2 86 mmHg, NaHCO3 0.3 mole/L, pH 8.0, about 20° C.); 756 mmHg in series [9] (initial air 726 / CO2 34 mmHg, NaHCO3 0.05 mole/L, pH 8.0, about 20° C.); 758 mmHg in series [9] (initial air 740 / CO2 20 mmHg, NaHCO3 0.05 mole/L, pH 7.4, about 20° C.).
